Drawing on patent US20230102554A1 (GB002, INC., priority 2019, published 2023), this text covers IC50 for 28 molecules.

Experiment [1] concerns the target T1, Human PDGFRα, cytoplasmic domain (GST-PDGFRα) (Homo sapiens, UniProt P16234).
T1 construct: made in house
Description: Human PDGFRα biochemical inhibition assay (off-chip Mobility Shift Assay).

For experiment [2], the target named is T2, Human PDGFRβ, cytoplasmic domain (GST-PDGFRβ) (Homo sapiens, UniProt P09619).
T2 construct: made in house
Description: Human PDGFRβ biochemical inhibition assay (off-chip Mobility Shift Assay). The gist of the method:
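GST-tagged cytoplasmic domain (aa 557-1106) from baculovirus was incubated 1 h at room temperature with compound, CSKtide, ATP at Km and Mg²⁺ in HEPES buffer, pH 7.5. Phosphorylated and unphosphorylated peptide were separated by off-chip mobility shift, and the product ratio P/(P+S) gave percent inhibition.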

The structures appear in SMILES notation. Some results are limits rather than exact numbers.

T1 sequence (P16234 550-1089 T674I): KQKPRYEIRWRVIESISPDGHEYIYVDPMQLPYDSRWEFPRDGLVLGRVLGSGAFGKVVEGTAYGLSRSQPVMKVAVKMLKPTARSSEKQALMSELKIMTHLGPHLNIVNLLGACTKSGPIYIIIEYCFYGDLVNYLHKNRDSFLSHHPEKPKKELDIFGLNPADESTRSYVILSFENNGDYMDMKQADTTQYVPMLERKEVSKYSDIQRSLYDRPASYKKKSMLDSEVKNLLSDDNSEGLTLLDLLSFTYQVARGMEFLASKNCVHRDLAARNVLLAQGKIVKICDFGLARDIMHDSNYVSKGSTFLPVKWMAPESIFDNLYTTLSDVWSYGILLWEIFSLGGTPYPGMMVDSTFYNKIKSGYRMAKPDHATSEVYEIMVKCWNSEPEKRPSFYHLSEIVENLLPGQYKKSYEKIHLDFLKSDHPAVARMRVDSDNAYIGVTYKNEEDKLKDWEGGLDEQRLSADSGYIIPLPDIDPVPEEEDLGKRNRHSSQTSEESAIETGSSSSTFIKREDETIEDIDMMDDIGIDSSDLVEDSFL
T2 sequence (P09619 with tags, fused parts or gaps): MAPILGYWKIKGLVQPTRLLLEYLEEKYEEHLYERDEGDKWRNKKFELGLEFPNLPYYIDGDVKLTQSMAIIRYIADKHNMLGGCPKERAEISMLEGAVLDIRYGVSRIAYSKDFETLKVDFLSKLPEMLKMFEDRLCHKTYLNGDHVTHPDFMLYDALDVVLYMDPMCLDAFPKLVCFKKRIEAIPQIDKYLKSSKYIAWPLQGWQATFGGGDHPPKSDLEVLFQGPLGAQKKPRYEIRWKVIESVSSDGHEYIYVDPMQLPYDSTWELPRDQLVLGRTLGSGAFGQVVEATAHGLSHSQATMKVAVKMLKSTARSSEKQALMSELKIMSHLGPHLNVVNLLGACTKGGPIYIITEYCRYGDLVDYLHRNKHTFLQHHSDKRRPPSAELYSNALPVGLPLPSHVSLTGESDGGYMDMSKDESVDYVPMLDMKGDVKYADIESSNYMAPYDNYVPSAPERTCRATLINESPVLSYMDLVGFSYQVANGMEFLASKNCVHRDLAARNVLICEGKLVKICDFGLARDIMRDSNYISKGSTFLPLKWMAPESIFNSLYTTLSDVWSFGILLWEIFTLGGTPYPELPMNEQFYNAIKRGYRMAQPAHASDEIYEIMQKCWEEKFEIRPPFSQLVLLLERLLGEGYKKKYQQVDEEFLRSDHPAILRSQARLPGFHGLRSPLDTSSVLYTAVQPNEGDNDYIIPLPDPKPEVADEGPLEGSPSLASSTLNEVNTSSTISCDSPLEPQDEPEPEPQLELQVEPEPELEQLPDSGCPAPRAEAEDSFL

For `Cc1ncc(C(=O)Nc2cccc([C@H](C)Nc3cnc4[nH]cc(-c5cnn(C)c5)c4n3)c2)s1` [Compound 583, (S)-2-methyl-N-(3-(1-((7-(1-methyl-1H-pyrazol-4-yl)-5H-pyrrolo[2,3-b]pyrazin-2-yl)amino)ethyl)phenyl)thiazole-5-carboxamide], the IC50 in experiment [1] and in experiment [2] was below 300 nM in each case.

`C[C@H](Nc1cnc2[nH]cc(-c3cnn(C)c3)c2n1)c1cccc(NC(=O)c2cc(C(F)(F)F)nn2C)c1` [Compound 584, (S)-1-methyl-N-(3-(1-((7-(1-methyl-1H-pyrazol-4-yl)-5H-pyrrolo[2,3-b]pyrazin-2-yl)amino)ethyl)phenyl)-3-(trifluoromethyl)-1H-pyrazole-5-carboxamide]: the IC50 in experiment [1] and in experiment [2] was 300 to 1000 nM in each case.

Take `C[C@H](Nc1cnc2[nH]cc(-c3cnn(C)c3)c2n1)c1cccc(NC(=O)c2ccc(N3CCCC3)nc2)c1` [Compound 585, (S)-N-(3-(1-((7-(1-methyl-1H-pyrazol-4-yl)-5H-pyrrolo[2,3-b]pyrazin-2-yl)amino)ethyl)phenyl)-6-(pyrrolidin-1-yl) nicotinamide]: the IC50 in experiment [1] and in experiment [2] was below 300 nM throughout.

For `COc1cncc(C(=O)Nc2cccc([C@H](C)Nc3cnc4[nH]cc(-c5cnn(C)c5)c4n3)c2)c1` [Compound 586, (S)-5-methoxy-N-(3-(1-((7-(1-methyl-1H-pyrazol-4-yl)-5H-pyrrolo[2,3-b]pyrazin-2-yl)amino)ethyl)phenyl) nicotinamide], the IC50 in experiment [1] and in experiment [2] was below 300 nM throughout.

`CNc1ncc(C(=O)Nc2cccc([C@H](C)Nc3cnc4[nH]cc(-c5cnn(C)c5)c4n3)c2)cc1C` [Compound 587, (S)-5-methyl-N-(3-(1-((7-(1-methyl-1H-pyrazol-4-yl)-5H-pyrrolo[2,3-b]pyrazin-2-yl)amino)ethyl)phenyl)-6-(methylamino)nicotinamide]: the IC50 in experiment [1] and in experiment [2] was below 300 nM throughout.

Take `CC(C)n1cc(C(=O)Nc2cccc([C@H](C)Nc3cnc4[nH]cc(-c5cnn(C)c5)c4n3)c2)cn1` [Compound 588, (S)-1-isopropyl-N-(3-(1-((7-(1-methyl-1H-pyrazol-4-yl)-5H-pyrrolo[2,3-b]pyrazin-2-yl)amino)ethyl)phenyl)-1H-pyrazole-4-carboxamide]: the IC50 in experiment [1] and in experiment [2] was below 300 nM throughout.

For the molecule `C[C@H](Nc1cnc2[nH]cc(-c3cnn(C)c3)c2n1)c1cccc(NC(=O)[C@@H]2C[C@H]2C(F)(F)F)c1` [Compound 589, (1R,2R)-N-(3-((S)-1-((7-(1-methyl-1H-pyrazol-4-yl)-5H-pyrrolo[2,3-b]pyrazin-2-yl)amino)ethyl)phenyl)-2-(trifluoromethyl)cyclopropane-1-carboxamide], the values for the IC50 in experiment [1] and in experiment [2] were at least 1000 nM and 300 to 1000 nM, respectively.

Regarding `Cc1cncc(C(=O)Nc2cccc([C@H](C)Nc3cnc4[nH]cc(-c5cccnc5)c4n3)c2)c1` [Compound 591, (S)-5-methyl-N-(3-(1-((7-(pyridin-3-yl)-5H-pyrrolo[2,3-b]pyrazin-2-yl)amino)ethyl)phenyl)nicotinamide], the IC50 in experiment [1] and in experiment [2] was below 300 nM in each case.

As for `Cc1cncc(C(=O)Nc2cccc([C@H](C)Nc3cnc4[nH]cc(-c5ccncc5)c4n3)c2)c1` [Compound 592, (S)-5-methyl-N-(3-(1-((7-(pyridin-4-yl)-5H-pyrrolo[2,3-b]pyrazin-2-yl)amino)ethyl)phenyl)nicotinamide], the IC50 in experiment [1] and in experiment [2] was below 300 nM each time.

`Cc1cncc(C(=O)Nc2cccc([C@H](C)Nc3cnc4[nH]cc(-c5cncnc5)c4n3)c2)c1` [Compound 593, (S)-5-methyl-N-(3-(1-((7-(pyrimidin-5-yl)-5H-pyrrolo [2,3-b]pyrazin-2-yl)amino)ethyl)phenyl)nicotinamide]: the IC50 in experiment [1] and in experiment [2] was below 300 nM each time.

With `C[C@H](Nc1cnc2[nH]ccc2n1)c1cccc(NC(=O)c2ccc(C3CC3)nc2)c1` [Compound 594, (S)-N-(3-(1-((5H-pyrrolo[2,3-b]pyrazin-2-yl)amino)ethyl)phenyl)-6-cyclopropylnicotinamide], the IC50 in experiment [1] and in experiment [2] was below 300 nM each time.

For `C[C@H](Nc1cnc2[nH]ccc2n1)c1cccc(NC(=O)c2ccc(OC(F)F)nc2)c1` [Compound 595, (S)-N-(3-(1-((5H-pyrrolo[2,3-b]pyrazin-2-yl)amino)ethyl)phenyl)-6-(difluoromethoxy)nicotinamide], the IC50 in experiment [1] and in experiment [2] was below 300 nM in each case.

On to `C[C@H](Nc1cnc2[nH]ccc2n1)c1cc(NC(=O)c2ccc(OC(F)F)nc2)ccc1F` [Compound 596, (S)-N-(3-(1-((5H-pyrrolo[2,3-b]pyrazin-2-yl)amino)ethyl)-4-fluorophenyl)-6-(difluoromethoxy)nicotinamide], for which the 50% inhibitory concentration (IC50) in experiment [1] and in experiment [2] was below 300 nM throughout.

Take `C[C@H](Nc1cnc2[nH]ccc2n1)c1cc(NC(=O)c2cnn(C3CCC3)c2)ccc1F` [Compound 597, (S)-N-(3-(1-((5H-pyrrolo[2,3-b]pyrazin-2-yl)amino)ethyl)-4-fluorophenyl)-1-cyclobutyl-1H-pyrazole-4-carboxamide]: the IC50 in experiment [1] and in experiment [2] was below 300 nM throughout.

As to `C[C@H](Nc1cnc2[nH]ccc2n1)c1cccc(NC(=O)c2cnn(C3CCC3)c2)c1` [Compound 598, (S)-N-(3-(1-((5H-pyrrolo[2,3-b]pyrazin-2-yl)amino)ethyl)phenyl)-1-cyclobutyl-1H-pyrazole-4-carboxamide], the IC50 in experiment [1] and in experiment [2] was below 300 nM throughout.

Regarding `C[C@H](Nc1cnc2[nH]ccc2n1)c1cc(NC(=O)c2ccc(C3CC3)nc2)ccc1F` [Compound 599, (S)-N-(3-(1-((5H-pyrrolo[2,3-b]pyrazin-2-yl)amino)ethyl)-4-fluorophenyl)-6-cyclopropylnicotinamide], the IC50 in experiment [1] and in experiment [2] was below 300 nM throughout.

For `Cc1cncc(C(=O)Nc2cccc([C@H](C)Nc3cnc4[nH]c(C5CC5)nc4c3)c2)c1` [Compound 601, (S)-N-(3-(1-((2-cyclopropyl-3H-imidazo[4,5-6]pyridin-6-yl)amino)ethyl)phenyl)-5-methylnicotinamide], the IC50 in experiment [1] and in experiment [2] was below 300 nM in each case.

As to `Cc1cncc(C(=O)Nc2cccc([C@H](C)Nc3cnc4[nH]c(-c5cnn(C)c5)nc4c3)c2)c1` [Compound 602, (S)-5-methyl-N-(3-(1-((2-(1-methyl-1H-pyrazol-4-yl)-3H-imidazo[4,5-b]pyridin-6-yl)amino)ethyl)phenyl) nicotinamide], the IC50 in experiment [1] and in experiment [2] was below 300 nM each time.

Regarding `Cc1cncc(C(=O)Nc2cccc([C@H](C)Nc3cnc4[nH]c(-c5cnn(C)c5)nc4n3)c2)c1` [Compound 603, (S)-5-methyl-N-(3-(1-((2-(1-methyl-1H-pyrazol-4-yl)-1H-imidazo[4,5-b]pyrazin-5-yl)amino)ethyl)phenyl) nicotinamide], the IC50 in experiment [1] and in experiment [2] was below 300 nM throughout.

As to `Cc1cncc(C(=O)Nc2cccc([C@H](C)Nc3cnc4ccoc4c3)c2)c1` [Compound 604, (S)-N-(3-(1-(furo[3,2-b]pyridin-6-ylamino)ethyl)phenyl)-5-methylnicotinamide], the IC50 in experiment [1] was below 300 nM; in experiment [2] it was 300 to 1000 nM.

As to `Cc1cncc(C(=O)Nc2cccc([C@H](C)Nc3cnc4ccoc4n3)c2)c1` [Compound 605, (S)-N-(3-(1-(furo[2,3-b]pyrazin-3-ylamino)ethyl)phenyl)-5-methylnicotinamide], the IC50 in experiment [1] and in experiment [2] was below 300 nM in each case.

Regarding `Cc1cncc(C(=O)Nc2cccc([C@H](C)Nc3cnc4ccsc4c3)c2)c1` [Compound 606, (S)-5-methyl-N-(3-(1-(thieno[3,2-b]pyridin-6-ylamino)ethyl)phenyl) nicotinamide], the half-inhibitory concentration (IC50) in experiment [1] and in experiment [2] was below 300 nM each time.

Turning to `Cc1cncc(C(=O)Nc2cccc([C@H](C)Nc3cnc4ccsc4n3)c2)c1` [Compound 607], the IC50 in experiment [1] and in experiment [2] was below 300 nM in each case.

On to `Cc1cc2ncc(N[C@@H](C)c3cccc(NC(=O)c4ccc(OC(F)F)nc4)c3)nc2s1` [Compound 608, (S)-6-(difluoromethoxy)-N-(3-(1-((6-methylthieno[2,3-b]pyrazin-3-yl)amino)ethyl)phenyl)nicotinamide], for which the half-inhibitory concentration (IC50) in experiment [1] and in experiment [2] was below 300 nM each time.

In the case of `Cc1cc2ncc(N[C@@H](C)c3cccc(NC(=O)c4cnn(C5CCC5)c4)c3)nc2s1` [Compound 609, (S)-1-cyclobutyl-N-(3-(1-((6-methylthieno[2,3-b]pyrazin-3-yl)amino)ethyl)phenyl)-1H-pyrazole-4-carboxamide], the IC50 in experiment [1] and in experiment [2] was below 300 nM throughout.

For `Cc1cc2ncc(N[C@@H](C)c3cccc(NC(=O)c4ccc(C5CC5)nc4)c3)nc2s1` [Compound 610, (S)-6-cyclopropyl-N-(3-(1-((6-methylthieno[2,3-b]pyrazin-3-yl)amino)ethyl)phenyl) nicotinamide], the half-maximal inhibitory concentration (IC50) in experiment [1] and in experiment [2] was below 300 nM in each case.

Consider `Cc1cc2ncc(N[C@@H](C)c3cc(NC(=O)c4ccc(OC(F)F)nc4)ccc3F)nc2s1` [Compound 611, (S)-6-(difluoromethoxy)-N-(4-fluoro-3-(1-((6-methylthieno[2,3-b]pyrazin-3-yl)amino)ethyl)phenyl) nicotinamide], for which the IC50 in experiment [1] and in experiment [2] was below 300 nM throughout.

As to `Cc1cc2ncc(N[C@@H](C)c3cc(NC(=O)c4ccc(C5CC5)nc4)ccc3F)nc2s1` [Compound 612, (S)-6-cyclopropyl-N-(4-fluoro-3-(1-((6-methylthieno[2,3-b]pyrazin-3-yl)amino)ethyl)phenyl)nicotinamide], the IC50 in experiment [1] and in experiment [2] was below 300 nM in each case.

Usually IC50 stands for the midpoint of a concentration-inhibition curve.
